The values that follow come from US4534971A, “Complexation of anthracycline and anthraquinone antibiotics by the apo riboflavin binding protein from eggs” (Regents of the University of Minnesota, priority 1982, dated 1985).

Series [1] has as its target T1, apo riboflavin binding protein from eggs (Gallus gallus, UniProt P02752).
T1 construct: obtained in homogeneous form from chicken egg white; from tissue; host or cells: chicken egg white
T1 sequence (P02752 18-238): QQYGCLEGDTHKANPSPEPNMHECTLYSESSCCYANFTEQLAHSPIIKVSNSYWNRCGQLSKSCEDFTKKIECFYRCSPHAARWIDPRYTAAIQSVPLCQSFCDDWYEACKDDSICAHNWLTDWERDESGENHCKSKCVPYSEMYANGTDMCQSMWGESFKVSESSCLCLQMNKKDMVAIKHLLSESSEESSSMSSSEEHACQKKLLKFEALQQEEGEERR
In words: Titration of antibiotic with egg riboflavin binding protein; dissociation constant. On the set-up: species or system chicken. The protocol:
The purified protein may be stored, for example, frozen at -20° C. in 10 mM potassium phosphate, 1 mM EDTA pH 7.0 buffer, at concentrations between about 1 and 10 mM.
A working solution of adriamycin was obtained by dissolution in warm 0.035M potassium phosphate pH 7.0 buffer containing 0.15M NaCl and 0.5 mM EDTA and cooled to ambient temperature (24±2° C.). To a 3.0 mL solution containing 3 μM adriamycin was added 5.0 μL increments of a 0.49 mM binding protein solution in 10 mM potassium phosphate, 1 mM EDTA pH 7.0 buffer.
Daunomycin was dissolved in warm buffer, followed by cooling. […] AD-32 was dissolved in dimethylformamide.
The binding protein affinity of three anthracyclinones was determined: (±)-aklavinone, 7-deoxydaunomycinone and iso-7-deoxydaunomycinone. Aklavinone and 7-deoxydaunomycinone were made as concentrated solutions in dimethylformamide, and the solution concentrations determined by dilution into alcohol. Leuco iso-7-deoxydaunomycinone was dissolved in dimethylformamide and diluted into buffer. The general procedure of Example 1 was followed.
Solutions were prepared and admixed as previously described.

Series [2] concerns the target T1, apo riboflavin binding protein from eggs. In words: Anaerobic dithionite redox titration of the daunomycin-binding protein complex. On the set-up: species or system chicken. An excerpt:
A further use of the antibiotic-protein complex is in redox titrations. Aqueous redox titrations of anthracyclines cannot be done. Although anthracycline glycosides are water soluble, loss of the glycoside (with its positive charge) provides the almost completely water insoluble 7-deoxyanthracyclinones. Unfortunately, glycoside loss is an integral aspect of anthracycline redox chemistry. The binding protein-anthracyclinecomplex has been used for anaerobic aqueous redox titrations. Dithionite reduction of the anthracycline glycoside provides, in a 2e^- process, the 7-deoxyanthracyclinone, via reductive elimination. The bound 7-deoxyanthracyclinone is then further 2e^- reduced to the bound hydroquinone. Semi-quinone radical intermediates are observed transiently; these are stable neither in solution nor complexed to the binding protein. Oxidation of the hydroquinone is accomplished by several reagents (oxygen, hydrogen peroxide, ferricyanide, cytochrome c). In the case of 7-deoxydaunomycinone hydroquinone, a mixture of two products is produced upon oxidation; these are the chromo 7-deoxydaunomycinone (identical to the first 2e^- reduction intermediate) and its leuco isomer, 8-acetyl-7,8,9,10-tetrahydro-5,8,12-trihydroxy-1-methoxy-6,11-napthacenedione(iso-7-deoxydaunomycinone).
An anaerobic redox titration of the daunomycin-binding protein complex was done. […]

A short description of series [3]: Stability of free and binding protein-complexed compound (isomerization, light, storage). The format is physicochemical. An excerpt:
Also of interest is the high affinity of the binding protein for iso-7-deoxydaunomycinone(8-acetyl-7,8,9,10-tetrahydro-5,8,12-trihydroxy-1- methoxy-6,11-napthacenedione). This compound is a kinetic product of 7-deoxydaunomycinone hydroquinone oxidation.
An anaerobic redox titration of the daunomycin-binding protein complex was done. The reducing agent used was dithionite anion. Spectrophotometric titrations were made on a Cary 219 spectrophotometer. Anaerobic titrations were done with gas tight syringes, with the deoxygenated solutions maintained under a positive pressure of O2 -free nitrogen. Dithionite was freshly prepared in O2 -free buffer and standardized by anaerobic riboflavin titration. Equilibration with dithionite is in all instances complete in seconds. […] Assignment of structure to this titration intermediate was confirmed by its isolation, and chromatographic comparison with an authentic sample. Further dithionite addition reduces the bound 7-deoxydaunomycinone to a new chromophore (λmax =407 nm). The hydroquinone is not further reduced, but is very easily oxidized upon mixing with oxidants such as oxygen, hydrogen peroxide, ferricyanide and cytochrome c. The absorption spectrum obtained following complete oxygen oxidation of the hydroquinone is different than any previous spectrum. Longer wavelength features, indicating the presence of 7-deoxydaunomycinone, are seen but a new chromophore (λmax approximately 445 nm) is also present. The structure of the compound corresponding to this chromophore is iso-7-deoxydaunomycinone on the basis of its spectroscopic data. In neutral aqueous buffer in the absence of the binding protein this compound promptly isomerizes to 7-deoxydaunomycinone (k=6×10^-4 s^-1). […] Binding protein stabilization is also reflected in an estimated 10-fold slower rate of dithionite reduction of the iso-7-deoxydaunomycinone compared to either 7-deoxydaunomycinone or daunomycin.

The mark [4] stands for this setting: general procedure of Example 1, read-out: Kd (anthracycline glycosides, Examples 2-7).
Where [5] appears, read: spectrophotometric, solutions prepared and admixed as previously described, read-out: Kd (anthraquinones and anthraquinone-like molecules, Examples 11-15).
Setting [6] is: general procedure of Example 1, read-out: Kd (anthracyclinones, Examples 8-10).

“Also recorded” adds a separate entry of the source. Like-named read-outs stand apart in the source and are kept apart here.

For `CC(=O)[C@]1(O)Cc2c(O)c3c(c(O)c2[C@@H](O[C@H]2C[C@H](N)[C@H](O)[C@H](C)O2)C1)C(=O)c1ccccc1C3=O` [4-Demethoxydaunomycin], the “binding to the binding protein (in words)” value (shortened to “binding … (in words)”) in series [1] is given as “bind with an affinity hardly different than that of adriamycin”. In addition, the Kd in series [1] (setting [4]) was found to be 0.3 µM.

Turning to `O=C1c2c(O)ccc(O)c2C(=O)c2c(NCCNCCO)ccc(NCCNCCO)c21` [DHAQ, 1,4-dihydroxy-5,8-bis[[2-(hydroxyethyl)amino]ethyl]-9. 10-anthracenedione], the “binding … (in words)” value in series [1] was “bound weakly”. In addition, the Kd in series [1] (setting [5]) amounted to 60 µM.

On to `COc1cccc2c1C(=O)c1c(O)c3c(c(O)c1C2=O)C[C@@](O)(C(C)=O)C[C@@H]3O[C@H]1C[C@H](N)[C@H](O)[C@H](C)O1` [Daunomycin], for which, in series [1], the dissociation constant (Kd) was 0.4 µM and the “binding … (in words)” value was “bind with an affinity hardly different than that of adriamycin”. Besides, in series [2] (anaerobic, dithionite, oxidation by oxygen, hydrogen peroxide, ferricyanide, cytochrome c), the “redox behaviour in titration (in words)” value is “first converted in a 2e^- process to 7-deoxydaunomycinone, with reductive elimination of the glycoside”.

For the molecule `CCN(CC)CCCC(C)Nc1c2ccc(Cl)cc2nc2ccc(OC)cc12` (centres unmarked) [Quinacrine], the “binding … (in words)” value in series [1] is “high affinity”.

Consider `COc1cccc2c1C(=O)c1c(O)c3c(c(O)c1C2=O)C[C@@](O)(C(C)=O)CC3` [7-Deoxydaunomycinone], for which, in series [1] (setting [6]), the Kd is 0.08 µM.

Turning to `Cc1cc2nc3c(=O)[nH]c(=O)nc-3n(C[C@H](O)[C@H](O)[C@H](O)CO)c2cc1C` [riboflavin], the “binding … (in words)” value in series [1] is reported as “no compound is more tightly bound by the egg binding protein than riboflavin”.

For the molecule `CC(=O)[C@@]1(O)Cc2c(O)c3c(c(O)c2[C@H](O[C@H]2C[C@H](N)[C@H](O)[C@H](C)O2)C1)C(=O)c1ccccc1C3=O` [7,9-Diepi-4-demethoxydaunomycin], the “binding … (in words)” value in series [1] is “binds most tightly of all”. Besides, in series [1] (setting [4]), the Kd was 0.08 µM.

Consider `CC[C@@]1(O)C[C@H](O)c2c(cc3c(c2O)C(=O)c2c(O)cccc2C3=O)[C@H]1C(=O)OC` (relative stereo) [(±)-Aklavinone], for which, in series [1], the Kd is 0.02 µM; the “binding … (in words)” value is “both enantiomers of the racemic aklavinone (7S, 9R, 10R, and 7R, 9S, 10S) are equally well bound”.

In the case of `COc1cccc2c(O)c3c(c(O)c12)C(=O)C1=C(C[C@@](O)(C(C)=O)CC1)C3=O` [Iso-7-deoxydaunomycinone, 8-acetyl-7,8,9,10-tetrahydro-5,8,12-trihydroxy-1-methoxy-6,11-napthacenedione], the “stability (in words)” value in series [3] (complexed to the binding protein) is “stable in organic solvents and when complexed to the binding protein; also recorded: stable for days”; in series [3] (free compound, aqueous buffer or organic solvents), “not stable in aqueous buffer to isomerization to 7-deoxydaunomycinone; also recorded: stable in organic solvents”. Besides, the “rate constant k of isomerization to 7-deoxydaunomycinone” value in series [3] (neutral aqueous buffer, absence of the binding protein) came to 0.0006 s⁻¹. The “binding … (in words)” value in series [1] is reported as “high affinity; also recorded: preferentially bound by the riboflavin binding protein”. The equilibrium dissociation constant (Kd) in series [1] (setting [6]) amounted to 0.02 µM. Further, the “slower rate of dithionite reduction compared to either 7-deoxydaunomycinone or daunomycin” value in series [2] (binding protein stabilization, estimated) is given as around 10 fold.

`CC[C@@]1(O)C[C@H](O[C@H]2C[C@H](N(C)C)[C@H](O[C@H]3C[C@H](O)[C@H](O[C@H]4CCC(=O)[C@H](C)O4)[C@H](C)O3)[C@H](C)O2)c2c(cc3c(c2O)C(=O)c2c(O)cccc2C3=O)[C@H]1C(=O)OC` [Aclacinomycin A]: in series [1], binding was put at a Kd of 1 µM and the “binding … (in words)” value is “bind with an affinity hardly different than that of adriamycin”. Moreover, the “binding … (in words)” value in series [1] (listed as aclacinomycin A) is recorded as “tight binding”.

For `COc1cccc2c1C(=O)c1c(O)c3c(c(O)c1C2=O)C[C@@](O)(C(=O)CO)C[C@@H]3O[C@H]1C[C@H](N)[C@H](O)[C@H](C)O1` [Adriamycin], in series [1], binding was put at a Kd of 0.5 ± 0.1 µM and the “binding … (in words)” value was “good binding”.

In the case of `CN(C)CCCN1c2ccccc2Sc2ccc(Cl)cc21` [Chlorpromazine], the “binding … (in words)” value in series [1] is reported as “high affinity”. For the same molecule, the Kd in series [1] (setting [5]) was around 1 µM.

On to `CN(C)[C@@H]1C(=O)C(C(N)=O)=C(O)[C@@]2(O)C(=O)C3=C(O)c4c(O)cccc4[C@@](C)(O)[C@H]3C[C@@H]12` [Tetracycline], for which, in series [1], the Kd was above 250 µM and the “binding … (in words)” value was “neither tetracycline nor carminic acid (an insect feeding deterrent) bind”.

Consider `Cc1c(C(=O)O)c(O)cc2c1C(=O)c1c(O)c([C@@H]3O[C@H](CO)[C@@H](O)[C@H](O)[C@H]3O)c(O)c(O)c1C2=O` [Carminic acid], for which, in series [1], the “binding … (in words)” value is given as “neither tetracycline nor carminic acid (an insect feeding deterrent) bind”. The Kd in series [1] (setting [5]) is above 250 µM.

`COC(=O)[C@@H]1c2cc3c(c(O)c2[C@@H](O[C@@H]2O[C@@H](C)[C@H](OC)[C@@](C)(OC)[C@H]2OC)C[C@]1(C)O)C(=O)c1c(O)cc2c(c1C3=O)O[C@@H]1O[C@@]2(C)[C@H](O)[C@@H](N(C)C)[C@@H]1O` [Nogalomycin]: in series [1], the “binding … (in words)” value was “All save nogalomycin bind”. The Kd in series [1] (setting [4]) was above 1000 µM.

With `CCCCC(=O)OCC(=O)[C@]1(O)Cc2c(O)c3c(c(O)c2[C@@H](O[C@H]2C[C@H](NC(=O)C(F)(F)F)[C@H](O)[C@H](C)O2)C1)C(=O)c1c(OC)cccc1C3=O` [AD-32, N-trifluoroacetyl-14-valeryl-adriamycin], the “binding … (in words)” value in series [1] was “binds well; also recorded: tight binding”. The “formation of AD-32-binding protein complex” value in series [1] (concentrated DMF solution added to slight molar excess of apo protein, approximately 20 μM each) is recorded as “quantitative formation of the AD-32-binding protein complex”.
